From US12281057B2 (VERTEX PHARMACEUTICALS INCORPORATED, priority 2017, dated 2025) come the findings set out here.

truncated form of human NaV 1.8 with full channel activity, sequence (Q9Y5Y9 126-1722 limits assumed): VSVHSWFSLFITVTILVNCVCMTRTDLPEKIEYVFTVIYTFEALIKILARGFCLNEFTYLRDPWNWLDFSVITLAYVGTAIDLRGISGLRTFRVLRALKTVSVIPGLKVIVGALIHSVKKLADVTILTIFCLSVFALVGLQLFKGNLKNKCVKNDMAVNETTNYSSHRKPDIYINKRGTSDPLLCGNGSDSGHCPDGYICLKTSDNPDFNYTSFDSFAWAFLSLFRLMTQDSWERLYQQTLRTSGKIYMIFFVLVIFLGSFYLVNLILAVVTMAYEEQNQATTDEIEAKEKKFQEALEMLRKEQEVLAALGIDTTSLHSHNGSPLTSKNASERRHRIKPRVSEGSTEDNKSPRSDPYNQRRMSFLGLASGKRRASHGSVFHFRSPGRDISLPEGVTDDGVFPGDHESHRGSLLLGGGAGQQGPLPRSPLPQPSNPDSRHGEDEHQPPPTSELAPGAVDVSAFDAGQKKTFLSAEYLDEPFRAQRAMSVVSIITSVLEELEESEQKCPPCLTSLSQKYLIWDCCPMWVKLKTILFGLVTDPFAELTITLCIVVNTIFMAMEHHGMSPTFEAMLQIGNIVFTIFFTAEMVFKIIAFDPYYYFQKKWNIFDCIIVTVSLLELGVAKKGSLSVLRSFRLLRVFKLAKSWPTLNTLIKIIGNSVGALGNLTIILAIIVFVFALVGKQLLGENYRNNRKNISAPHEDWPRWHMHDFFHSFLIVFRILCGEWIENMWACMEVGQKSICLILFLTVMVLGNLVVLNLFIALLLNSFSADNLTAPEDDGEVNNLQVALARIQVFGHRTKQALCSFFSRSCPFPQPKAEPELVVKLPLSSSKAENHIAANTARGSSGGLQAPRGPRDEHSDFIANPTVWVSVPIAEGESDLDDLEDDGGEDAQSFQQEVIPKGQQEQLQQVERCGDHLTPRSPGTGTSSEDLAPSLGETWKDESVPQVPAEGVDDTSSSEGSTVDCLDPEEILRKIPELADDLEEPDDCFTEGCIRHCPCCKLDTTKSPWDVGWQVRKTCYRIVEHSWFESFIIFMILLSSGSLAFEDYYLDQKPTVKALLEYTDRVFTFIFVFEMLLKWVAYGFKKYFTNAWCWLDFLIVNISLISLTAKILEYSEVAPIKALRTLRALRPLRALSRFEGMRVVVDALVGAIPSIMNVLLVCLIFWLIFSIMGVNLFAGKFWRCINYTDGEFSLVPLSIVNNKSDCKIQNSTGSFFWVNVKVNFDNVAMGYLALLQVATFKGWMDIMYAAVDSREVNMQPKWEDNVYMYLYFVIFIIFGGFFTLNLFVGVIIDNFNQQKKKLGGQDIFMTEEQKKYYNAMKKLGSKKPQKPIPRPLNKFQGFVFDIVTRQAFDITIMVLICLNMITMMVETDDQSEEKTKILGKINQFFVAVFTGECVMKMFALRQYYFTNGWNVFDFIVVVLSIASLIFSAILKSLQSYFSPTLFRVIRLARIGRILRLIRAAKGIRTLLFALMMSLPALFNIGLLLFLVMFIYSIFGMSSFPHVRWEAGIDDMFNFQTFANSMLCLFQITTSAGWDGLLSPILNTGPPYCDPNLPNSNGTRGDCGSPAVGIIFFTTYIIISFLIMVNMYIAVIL

One experiment deals with truncated form of human NaV 1.8 with full channel activity (Homo sapiens, UniProt Q9Y5Y9). In words: E-VIPR Assay Method A for detecting and measuring Nav inhibition (HEK cells, membrane potential FRET dyes, electrical stimulation). Conditions: HEK cells expressing human NaV 1.8, HS (human serum) in compound loading buffer, 11 point dose response, top dose 3 μM, Table 20, read-out: Nav 1.8 MedChem Optical Assay EVIPR Assay Method A HS IC50. In kind it is cell-based. An excerpt:
E-VIPR Assay Method A for Detecting and Measuring Nav Inhibition Properties Sodium ion channels are voltage-dependent proteins that can be activated by inducing membrane voltage changes by applying electric fields. The electrical stimulation instrument and methods of use, referred to as E-VIPR, are described in International Publication No. WO 2002/008748 A3 and C.-J. Huang et al. Characterization of voltage-gated sodium channel blockers by electrical stimulation and fluorescence detection of membrane potential, 24 Nature Biotech. 439-46 (2006), both of which are incorporated by reference in their entirety. The instrument comprises a microtiter plate handler, an optical system for exciting the coumarin dye while simultaneously recording the coumarin and oxonol emissions, a waveform generator, a current- or voltage-controlled amplifier, and parallel electrode pairs that are inserted into assay plate wells. Under integrated computer control, this instrument passes user-programmed electrical stimulus protocols to cells within the wells of the microtiter plate. […] Sigma #F4135), 1% NEAA (Non-Essential Amino Acids, Life Tech #11140), 1% HEPES (Life Tech #15630), 1% Pen-Strep (Penicillin-Streptomycin; […] Cells were expanded in vented cap flasks, with 95% humidity and 5% CO2. Reagents and Stock Solutions: • 100 mg/mL Pluronic F-127 (Sigma #P2443), in dry DMSO • Compound Plates: […] 5% KIR 2.1 Bacmam virus (produced in-house), prepared as described in Section 3.3 of J. A. […] The solution was made by adding 10% Pluronic F127 stock equal to combined volumes of CC2-DMPE and DiSBAC6(3). The order of preparation was first mix Pluronic and CC2-DMPE, then add DiSBAC6(3), then while vortexing add Bath1/β-Cyclodextrin. […] Assay Protocol: […] Final DMSO concentration for all wells in the assay was 0.625% (0.75% DMSO was supplemented to the Compound Loading Buffer for a final DMSO concentration of 0.625%). […] 3) Cell plates were prepared. On the day of the assay, the media was aspirated, and the cells were washed three times with 80 μL of Bath-1 buffer, maintaining 25 μL residual volume in each well. 4) 25 μL per well of Hexyl Dye Solution was dispensed into the cell plates. The cells were incubated for 20 minutes at room temp or ambient conditions in darkness. 5) 80 μL per well of Compound Loading Buffer was dispensed into compound plates. 6) The cell plates were washed three times with 80 μL per well of Bath-1 Buffer, leaving 25 µL of residual volume. Then 25 uL per well from compound plate was transferred to each cell plate. The mixture was incubated for 30 minutes at room temp/ambient conditions. 7) The plate was read on E-VIPR using the current-controlled amplifier to deliver stimulation wave pulses using the following protocol: 1.25 Amps, 2.5 ms pulse width biphasic waveform, 10 Hz for 10 seconds at a scan rate of 200 Hz. A pre-stimulus recording was performed for 0.5 seconds to obtain the un-stimulated intensities baseline. The stimulatory waveform was followed by 0.5 seconds of post-stimulation recording to examine the relaxation to the resting state. Data Analysis: Data were analyzed and reported as normalized ratios of emission intensities measured in the 460 nm and 580 nm channels. The response as a function of time was reported as the ratios obtained using the following formula: […] The data were further reduced by calculating the initial (Ri) and final (Rf) ratios. These were the average ratio values during part or all of the pre-stimulation period and during sample points during the stimulation period. The fluorescence ratio (Rf/Ri) was then calculated and reported as a function of time. Control responses were obtained by performing assays in the presence of the positive control, and in the absence of pharmacological agents (DMSO vehicle negative control). Responses to the negative (N) and positive (P) controls were calculated as above. The compound antagonist % activity A was then defined as: [formula] where X is the ratio response of the test compound. […]
The term IC50 denotes the concentration needed to halve the response being measured. For the compound `[2H]C([2H])([2H])Oc1cc(OC(F)(F)F)ccc1Oc1ccc(C(F)(F)F)c(F)c1C(=O)Nc1ccc(F)c(C(N)=O)c1` [Compound 1, N-(3-carbamoyl-4-fluoro-phenyl)-2-fluoro-6-[2-(trideuteriomethoxy)-4-(trifluoromethoxy)phenoxy]-3-(trifluoromethyl)benzamide], the 50% inhibitory concentration (IC50) turned out to be 0.7 nM. Still for that read-out and setting: to `COc1cc(OC(F)(F)F)ccc1Oc1ccc(C(F)(F)F)c(F)c1C(=O)Nc1ccc(F)c(C(N)=O)c1` [Compound 2, N-(3-carbamoyl-4-fluoro-phenyl)-2-fluoro-6-[2-methoxy-4-(trifluoromethoxy)phenoxy]-3-(trifluoromethyl)benzamide] belongs 1 nM. The same measure, in the same setting: to `[2H]C([2H])([2H])Oc1cc(OC(F)(F)F)ccc1Oc1ccc(OC(F)(F)F)c(F)c1C(=O)Nc1ccc(F)c(C(N)=O)c1` [Compound 3, N-(3-carbamoyl-4-fluoro-phenyl)-2-fluoro-6-[2-(trideuteriomethoxy)-4-(trifluoromethoxy)phenoxy]-3-(trifluoromethoxy)benzamide] belongs 1 nM. `COc1cc(OC(F)(F)F)ccc1Oc1ccc(C(F)(F)F)c(F)c1C(=O)Nc1ccnc(C(N)=O)c1` [Compound 4, 4-[[2-fluoro-6-[2-methoxy-4-(trifluoromethoxy)phenoxy]-3-(trifluoromethyl)benzoyl]amino]pyridine-2-carboxamide]: the IC50 came out at 2 nM.

Take `COc1cc(OC(F)(F)F)ccc1Oc1ccc(Cl)c(F)c1C(=O)Nc1ccnc(C(N)=O)c1` [Compound 5, 4-[[3-chloro-2-fluoro-6-[2-methoxy-4-(trifluoromethoxy)phenoxy]benzoyl]amino]pyridine-2-carboxamide]: the 50% inhibitory concentration (IC50) is 2 nM. Same read-out and setting: to `[2H]C([2H])([2H])Oc1cc(OC(F)(F)F)ccc1Oc1ccc(C(F)(F)F)c(F)c1C(=O)Nc1ccnc(C(N)=O)c1` [Compound 6, 4-[[2-fluoro-6-[2-(trideuteriomethoxy)-4-(trifluoromethoxy)phenoxy]-3-(trifluoromethyl)benzoyl]amino]pyridine-2-carboxamide] belongs 3 nM. Still for that read-out and setting: to `COc1cc(OC(F)(F)F)ccc1Oc1ccc(C(F)F)c(F)c1C(=O)Nc1ccc(F)c(C(N)=O)c1` [Compound 7, N-(3-carbamoyl-4-fluoro-phenyl)-3-(difluoromethyl)-2-fluoro-6-[2-methoxy-4-(trifluoromethoxy)phenoxy]benzamide] belongs 3 nM; to `[2H]C([2H])([2H])Oc1cc(OC(F)(F)F)ccc1Oc1ccc(OC(F)(F)F)c(F)c1C(=O)Nc1ccnc(C(N)=O)c1` [Compound 8, 4-[[2-fluoro-6-[2-(trideuteriomethoxy)-4-(trifluoromethoxy)phenoxy]-3-(trifluoromethoxy)benzoyl]amino]pyridine-2-carboxamide], 3 nM. As to `NC(=O)c1cc(NC(=O)c2c(Oc3ccc(OC(F)(F)F)cc3Cl)ccc(C(F)(F)F)c2F)ccc1F` [Compound 9, N-(3-carbamoyl-4-fluoro-phenyl)-6-[2-chloro-4-(trifluoromethoxy)phenoxy]-2-fluoro-3-(trifluoromethyl)benzamide], the concentration for half-maximal inhibition (IC50) came out at 3 nM. Still for that read-out and setting: to `Cc1cc(OC(F)(F)F)ccc1Oc1ccc(C(F)(F)F)c(F)c1C(=O)Nc1ccc(F)c(C(N)=O)c1` [Compound 10, N-(3-carbamoyl-4-fluoro-phenyl)-2-fluoro-6-[2-methyl-4-(trifluoromethoxy)phenoxy]-3-(trifluoromethyl)benzamide] belongs 3 nM. The same measure, in the same setting: to `COc1cc(OC(F)(F)F)ccc1Oc1cc(F)c(F)c(F)c1C(=O)Nc1ccc(F)c(C(N)=O)c1` [Compound 11, N-(3-carbamoyl-4-fluoro-phenyl)-2,3,4-trifluoro-6-[2-methoxy-4-(trifluoromethoxy)phenoxy]benzamide] belongs 4 nM; to `COc1cc(OC(F)(F)F)ccc1Oc1cnc(C(F)(F)F)c(F)c1C(=O)Nc1ccnc(C(N)=O)c1` [Compound 12, N-(2-Carbamoyl-4-pyridyl)-3-fluoro-5-[2-methoxy-4-(trifluoromethoxy)phenoxy]-2-(trifluoromethyl)pyridine-4-carboxamide], 4 nM. Same read-out and setting: to `NC(=O)c1cc(NC(=O)c2c(Oc3ccc(OC(F)(F)F)cc3OC(F)F)ccc(C(F)(F)F)c2F)ccn1` [Compound 13, 4-[[6-[2-(difluoromethoxy)-4-(trifluoromethoxy)phenoxy]-2-fluoro-3-(trifluoromethyl)benzoyl]amino]pyridine-2-carboxamide] belongs 4 nM; to `NC(=O)c1cc(NC(=O)c2c(Oc3ccc(OC(F)(F)F)c(Cl)c3)ccc(C(F)(F)F)c2F)ccc1F` [Compound 14, N-(3-carbamoyl-4-fluoro-phenyl)-6-[3-chloro-4-(trifluoromethoxy)phenoxy]-2-fluoro-3-(trifluoromethyl)benzamide], 6 nM. Regarding `NC(=O)c1cc(NC(=O)c2c(Oc3ccc(OC(F)(F)F)cc3)ccc(C(F)(F)F)c2F)ccc1F` [Compound 15, N-(3-carbamoyl-4-fluoro-phenyl)-2-fluoro-6-[4-(trifluoromethoxy)phenoxy]-3-(trifluoromethyl)benzamide], the 50% inhibitory concentration (IC50) came out at 7 nM. Still for that read-out and setting: to `COc1cc(OC(F)(F)F)ccc1Oc1ccc(C(F)(F)F)c(F)c1C(=O)Nc1ccc(C(N)=O)c(F)c1` [Compound 16, N-(4-carbamoyl-3-fluoro-phenyl)-2-fluoro-6-[2-methoxy-4-(trifluoromethoxy)phenoxy]-3-(trifluoromethyl)benzamide] belongs 7 nM; to `[2H]C([2H])([2H])Oc1cc(OC(F)(F)F)ccc1Oc1cc(C(F)(F)F)cc(F)c1C(=O)Nc1ccnc(C(N)=O)c1` [Compound 17, 4-[[2-fluoro-6-[2-(trideuteriomethoxy)-4-(trifluoromethoxy)phenoxy]-4-(trifluoromethyl)benzoyl]amino]pyridine-2-carboxamide], 8 nM.

The experiment is the same for the next values; noted with them: HEK cells expressing human NaV 1.8, HS (human serum) in compound loading buffer, 11 point dose response, top dose 3 μM, Table 20A, read-out: Nav 1.8 MedChem Optical Assay EVIPR Assay Method A HS IC50.
For the compound `COc1cc(OC(F)(F)F)ccc1Oc1cc(C2C[C@@H]2C)ncc1C(=O)Nc1ccc(F)c(C(N)=O)c1` (mixture of isomers) [Compound 106, Racemic trans-N-(3-Carbamoyl-4-fluoro-phenyl)-4-[2-methoxy-4-(trifluoromethoxy)phenoxy]-6-(2-methylcyclopropyl)pyridine-3-carboxamide], the IC50 turned out to be 15 nM. Consider `COc1cc(OC(F)(F)F)ccc1Oc1cc(C2C[C@@H]2C)ncc1C(=O)Nc1ccnc(C(N)=O)c1` (mixture of isomers) [Compound 109, Racemic trans-4-(4-(2-Methoxy-4-(trifluoromethoxy)phenoxy)-6-(2-methylcyclopropyl)nicotinamido)picolinamide], for which the IC50 came to 65 nM. Same read-out and setting: to `COc1cc(OC(F)(F)F)ccc1Oc1cc([C@H]2C[C@@H]2C)ncc1C(=O)Nc1ccnc(C(N)=O)c1` (single isomer, unassigned) [Compound 111] belongs 200 nM.

Take `COc1cc(OC(F)(F)F)ccc1Oc1cc([C@@H]2C[C@H]2C)ncc1C(=O)Nc1ccnc(C(N)=O)c1` (single isomer, unassigned) [Compound 112]: the IC50 stood at 43 nM. As for `COc1cc(OC(F)(F)F)ccc1Oc1cc([C@H]2C[C@@H]2C)ncc1C(=O)Nc1ccc(F)c(C(N)=O)c1` (single isomer, unassigned) [Compound 113], the IC50 came out at 84 nM. For the compound `COc1cc(OC(F)(F)F)ccc1Oc1cc([C@@H]2C[C@H]2C)ncc1C(=O)Nc1ccc(F)c(C(N)=O)c1` (single isomer, unassigned) [Compound 114], the half-inhibitory concentration (IC50) was determined as 17 nM.
